Measured values: patent US6758840B2, “Drug delivery device” (Metris Therapeutics Limited, priority 2000, dated 2004)

What was measured:
[1] = Plasma mefenamic acid after intra-vaginal device with adhesive tape layer (Example 2); type: in vivo, Rhesus monkeys; conditions: intra-vaginal tampon device, double-sided adhesive tape as fluid-impermeable layer, mefenamic acid powder dusted on; Rhesus monkey plasma
Text: Devices according to the present invention were made and used to deliver a pharmaceutical agent intra-vaginally in Rhesus monkeys.
(§1) Materials used in the manufacture of commercial tampons for human use were reconstituted to produce tampons with dimensions 7 mm×25 mm or 5 mm×25 mm. Depending on the weight of an individual Rhesus monkey, one of these sizes of tampon was able to be conveniently inserted into the vagina of the Rhesus monkey.
A strip of double-sided adhesive tape was secured to the surface of the tampons to function as the fluid-impermeable layer. Mefenamic acid powder was “dusted” onto the surface of the tape and non-adherent mefenamic acid was removed.
(§2) Rhesus monkeys were anaesthetised with ketamine hydrochloride and one of the above-mentioned tampon devices was inserted into the vagina of each monkey. A 19 gauge catheter was inserted into the saphenous vein of each monkey. This catheter was used to collect blood samples during the course of the study. The monkeys were returned to their cages when appropriate.
(§3) Blood samples were taken at intervals and plasma was prepared and frozen. After the completion of the study, all plasma samples were assayed for the concentration of mefenamic acid.

[2] = Plasma mefenamic acid after intra-vaginal device with wax layer (Example 3); type: in vivo, Rhesus monkeys; conditions: intra-vaginal tampon device, wax fluid-impermeable layer, mefenamic acid dusted on; Rhesus monkey plasma
Text: Further devices according to the present invention were made and used to deliver a pharmaceutical agent intra-vaginally in Rhesus monkeys.
as §1
Wax material was used to create a fluid-impermeable layer of the tampons by warming the wax layer to make it adhere to the body of the tampon. Once the wax layer had been applied, mefenamic acid was “dusted” onto the device while the device was warmed to aid adhesion between the wax and the mefenamic acid. Non-adherent mefenamic acid was removed.
as §2, §3

[3] = Plasma mefenamic acid after intra-vaginal wax-layer device, eight monkeys (Example 4); type: in vivo; conditions: average 6.4 mg mefenamic acid per device, mean of eight Rhesus monkeys
Experimental: Eight devices were prepared as described in Example 3. The devices were assayed and the average amount of mefenamic found to be in each device was 6.4 mg. Each device was inserted into the vagina of one of eight Rhesus monkeys. The monkeys all weighed in the range 7.27 kg to 8.95 kg.
(§4) Blood samples were taken from the Rhesus monkeys and the samples were assayed as described in Example 3, at the time intervals shown in the graph of FIG. 18. The results of this study are shown in the graph of FIG. 18, which indicates the concentration in ng/ml of mefenamic acid found in the plasma of the Rhesus monkeys with time following insertion of the devices of this example. Each point of the graph of FIG. 18 represents the mean value of the concentration of the eight monkeys.

[4] = Comparison of uptake of mefenamic acid from device and from slurry (Example 5); type: in vivo; conditions: Rhesus monkeys
Text: A comparison was made between the uptake of mefenamic acid in Rhesus monkeys where the mefenamic acid was introduced intra-vaginally using the devices of Example 3 and the uptake of mefenamic acid in Rhesus monkeys where a slurry comprising mefenamic acid was introduced intra-vaginally.
The slurry of mefenamic acid applied to a Rhesus monkey comprised a total amount of mefenamic acid that was greater than ten times that applied to a Rhesus monkey using the device of Example 3.
as §4, with “19.” for “18.”, “19,” for “18,”, “devices (circles) and slurry (triangles)” for “devices”, “example.” for “example. Each point of the graph of FIG. 18 represents the mean value of the concentration of the eight monkeys.”

Q: Which “transport across the vaginal mucosa / systemic circulation (plasma concentration, FIG. 16)” value [1] does the source give for `Cc1cccc(Nc2ccccc2C(=O)O)c1C` [mefenamic acid] here?
A: Its value is “mefenamic acid was transported across the vaginal mucosa and systemic circulation of mefenamic acid was achieved”.

Q: And the “transport across the vaginal mucosa / systemic circulation (plasma concentration, FIG. 17)” value [2]?
A: Its value is “mefenamic acid was transported across the vaginal mucosa and systemic circulation of mefenamic acid was achieved”.

Q: And the “transport across the vaginal mucosa / systemic circulation (plasma concentration, FIG. 18)” value [3]?
A: Its value is “mefenamic acid was transported across the vaginal mucosa and systemic circulation of mefenamic acid was achieved”.

Q: And the “uptake of mefenamic acid (plasma concentration, FIG. 19)” value ([4]; introduced intra-vaginally as slurry, total amount greater than ten times that of the device)?
A: The value was “only limited uptake of mefenamic acid by the monkeys was achieved”.

Q: And the “uptake of mefenamic acid (plasma concentration, FIG. 19)” value ([4]; introduced intra-vaginally using the device of Example 3 (wax layer))?
A: Its value is “transportation of mefenamic acid across the vaginal mucosa and systemic circulation of mefenamic acid in the Rhesus monkeys was achieved”.
